Molecules are shown by their SMILES.

The test system of data set [1] is αβ T processed cells. As to the kind of experiment: Intracellular perforin production in αβ T processed cells (flow cytometry, MFI). The data set is classed as cell-based, human. Conditions: 2 mM D-mannose or L-mannose added to the culture with 2 mM 2DG; for Intracellular granzyme B: data not shown. Here is the method: Next, it was verified whether or not mannose inhibited the increase in the amount of intracellular perforin of the αβ T processed cells treated with 2DG. In the preparation of Example 1, αβ T processed cells were prepared with the addition of 2 mM of D-mannose (Sigma-Aldrich Co. LLC) or L-mannose (Tokyo Chemical Industry Co., Ltd.), the prepared cells were treated with IntraPrep Permeabilization Reagent (Beckman Coulter, Inc.), and the expression level of the intracellular perforin was determined by staining the cells with APC-labeled anti-perforin antibodies. The stained cells were subjected to measurement by using a flow cytometer FACS CantoII (BD Biosciences), and the data were analyzed by using Kaluza (Beckman Coulter, Inc.) software. The Mean Fluorescence Intensity (MFI) value is mean fluorescence intensity, and reflects the expression level.

Data set [2] concerns cancer cells. The experiment in a line: Suppression of cytotoxic activity of 2DG-treated αβ T processed cells by D-mannose. Type of data set: cell-based, human. The conditions noted are these: 2 mM D-mannose or L-mannose added to the culture with 2 mM 2DG. The method, then: (§1) The cytotoxic activity test by fluorescent staining was performed by using Terascan VPC2 (Minerva Tech K.K.). Cancer cell line K562 (leukemia cell line), Daudi (Burkitt's lymphoma cell line), and HOS (osteosarcoma cell line), and DLD1 (colon cancer cell line) were labeled for 30 minutes with 2.55 to 5 μg/mL of fluorescent dye Cellstein R-Calcein-AM solution (DOJINDO LABORATORIES). The labeled cancer cells and the αβ T processed cells were mixed at a ratio of 1:25, and the mixed cells were incubated for 2 to 4 hours in RPMI 1640 and 10% FBS (in the absence of IL-2). The cytotoxic activity was calculated by using changes in the fluorescence intensity of the cancer cells co-cultured with the αβ T processed cells as an index, assuming the fluorescence decay rate when treated with 1% NP40 (surfactant) as 100% (FIG. 2C).
Therefore, it was investigated whether or not the cytotoxic activity ability was suppressed by adding D-mannose to the processing of αβ T cells treated with 2DG.
In the preparation of Example 1, αβ T processed cells were prepared with the addition of 2 mM of D-mannose (Sigma-Aldrich Co. LLC) or L-mannose (Tokyo Chemical Industry Co., Ltd.), and the prepared αβ T processed cells were subjected to the measurement of cytotoxic activity by the method described in item 3.2.

The test system of another data set is IL-2 receptor. The experiment in a line: IL-2 receptor expression on αβ T processed cells (flow cytometry). The conditions noted are these: cells cultured with 2DG and D-mannose. Type of data set: cell-based, human. Here is the method: It is known that the intracellular perforin and granzyme B in effector cells are induced and expressed by the stimulation from IL-2 receptor on a T cell. Therefore, the expression of the IL-2 receptor was confirmed. […] The obtained resuspension was passed through a cell strainer to remove aggregates. The obtained cells were incubated for 1 hour on ice, together with PE/Cy5-labeled anti-IL-2R antibodies (BioLegend, Inc.), and FITC-labeled anti-CD3 antibodies (Beckman Coulter, Inc.), and after the washing of the incubated cells, the measurement was performed by using a flow cytometer FACS Cantoll (BD Biosciences). The data were analyzed by using Kaluza (Beckman Coulter, Inc.) software.
Background: Flow cytometry measures light scatter and fluorescence of single cells or particles in a stream.

The subject of data set [3] is αβ T processed cells. The experiment in a line: Cytokine production of αβ T processed cells (Bio-plex). Type of data set: cell-based, human. Conditions: culture supernatant after 24 hours in RPMI 1640 + 10% FCS without IL-2; 4 healthy donor samples; vs cont. Here is the method: The cytokine production ability of the αβ T processed cells prepared in Example 1 was determined by using Bio-plex “human cytokine G1 27 plex panel” (Bio-Rad Laboratories, Inc.) (FIG. 2A). Specifically, the αβ T processed cells prepared in Example 1 were replaced in a medium containing RPMI 1640 and 10% FCS in the absence of IL-2, and cultured. The culture supernatant after 24 hours from the start of the culture was recovered, and subjected to measurement.

The subject of data set [4] is αβ T processed cells. The experiment in a line: Perforin and granzyme B in culture supernatant after PMA/ionomycin stimulation (ELISA). The data set is classed as cell-based, human. Conditions: after PMA (5 ng/ml) and ionomycin (0.5 μg/ml) stimulation; 4 healthy donor samples; vs cont. Here is the method:
Furthermore, perforin and granzyme B in the culture supernatant after the degranulation due to the PMA (5 ng/ml) and ionomycin (0.5 μg/ml) stimulation were determined by using Human Perforin ELISA Kit and Human Granzyme B ELISA Kit (Abcam plc.), respectively (FIG. 2B).
A general note: ELISA stands for enzyme-linked immunosorbent assay.

In data set [5] the test system is sugar chains of αβ T processed cells. The experiment in a line: LC-MS mass spectrometry analysis of sugar chains on cell surface. The data set is classed as cell-based, human. The conditions noted are these: summary of Table 1. An excerpt: From the αβ T processed cells, sugar chains were purified and labeled by using BlotGlyco (Sumitomo Bakelite Co., Ltd.), and then the purified and labeled sugar chains were subjected to LC-MS mass spectrometry analysis (FIG. 5A).

The subject of a further data set is galectin-3. As to the kind of experiment: Galectin-3 binding ability of αβ T processed cells (flow cytometry). The data set is classed as cell-based. Conditions: cells cultured with 0 to 4 mM of 2DG; recombinant galectin-3, 4° C., 30 minutes; vs cont. The method, then: The galectin-3 binding ability was detected with FITC-labeled anti-mouse IgG antibodies (Jackson ImmunoResearch Laboratories, Inc.). In this regard, as an experimental control of the galectin-3 binding, addition of 0.1 M of lactose (Sigma-Aldrich Co. LLC) for inhibiting the binding of galectin to sugar chains was performed. The measurement was performed by using a flow cytometer FACS CantoII (BD Biosciences), and the data were analyzed by using Kaluza (Beckman Coulter, Inc.) software.

In data set [6] the test system is Daudi (Burkitt's lymphoma cell line). As to the kind of experiment: In vitro cytotoxic activity against cultured cells (Calcein-AM, Terascan). The data set is classed as cell-based, human. The conditions noted are these: cancer cells:αβ T processed cells 1:25, 2 to 4 hours; vs conventional method. The method, then:
as §1

The next data set relates to Daudi cells. As to the kind of experiment: Degranulation: CD107a exposure on CD8+ T cells in co-culture with cancer cells. The data set is classed as cell-based, human. Conditions: co-culture with Daudi cells 25:1, 6 hours. The text has this:
(§2) In the αβ T processed cells treated with 2DG as described above, secretions of effector factors such as cytokines, perforin, and granzyme B were promoted, and the cytotoxic activity was enhanced. Since exposure of CD107a localized in an intracellular vesicle onto the cell surface serves as an index of degranulation for the release of an effector factor from a cytotoxic T cell or a NK cell, the exposure of CD107a onto the cell surface by co-culture with cancer cells having different cytotoxicity was detected.
(§3) In the presence of APC-labeled anti-CD107a antibodies (BioLegend, Inc.), the αβ T processed cells and cancer cells were mixed at a ratio of 25:1, and the mixed cells were cultured for 6 hours. After the washing of the cultured cells, the washed cells were stained with PE-labeled anti-CD8 antibodies (Beckman Coulter, Inc.). The cells thus stained were subjected to measurement by using a flow cytometer FACS CantoII (BD Biosciences), and the obtained data were analyzed by using Kaluza (Beckman Coulter, Inc.) software (FIG. 2D).

A further data set relates to K562 cells. The data set is described as above. The data set is classed as cell-based, human. The conditions noted are these: co-culture with K562 cells 25:1, 6 hours.
From the text: as §2, §3

Data set [7] concerns cancer cells. As to the kind of experiment: Cytotoxic activity of αβ T processed cells cultured with a glycolytic inhibitor. The data set is classed as cell-based, human. The conditions noted are these: cells prepared with oxamate (2 mM) or bromo pyruvate (10 μM); vs cells not treated with 2DG. The method, then: as §1
By using the method described in 3.2. of Example 3, the cytotoxic activity against each of cancer cells, by the αβ T processed cells treated with oxamate (2 mM) or bromo pyruvate (10 μM), which is a glycolytic inhibitor, was examined.

Regarding `O=C[C@@H](O)[C@@H](O)[C@H](O)[C@H](O)CO` [D-mannose], in the data set with αβ T processed cells [1], the “Intracellular perforin expression level (MFI)” value is on record as “reduced the effect of 2DG” and the “Intracellular granzyme B” value is “the results were also similar”. Besides, in the data set on cancer cells [2], the “Cytotoxic activity of αβ T processed cells cultured with 2DG plus mannose” value is “reduced the effect of 2DG”. For the same compound, the “Expression of the IL-2 receptor on a cell surface” value in the data set on IL-2 receptor is given as “suppressed”.
For the compound `O=C[C@H](O)[C@H](O)[C@@H](O)[C@@H](O)CO` [L-mannose], in the data set with αβ T processed cells [1], the “Intracellular perforin expression level (MFI)” value is reported as “no influence” and the “Intracellular granzyme B” value is listed as “the results were also similar”. Moreover, in the data set on cancer cells [2], the “Cytotoxic activity of αβ T processed cells cultured with 2DG plus mannose” value is “no influence on the cytotoxic activity of 2DG”.
In the case of `OCC1O[C@H](O)C[C@@H](O)[C@@H]1O` (mixture of isomers) [2DG, 2-deoxy-d-glucose], the “Secretion of cytokines (IL-2, IFN-γ, TNFα)” value with αβ T processed cells [3] is recorded as “increased by 2DG treatment in 3 cases out of 4 cases”. For the same compound, in the data set on αβ T processed cells [4], the “Secretion of granzyme B” value is given as “increased by 2DG treatment in 3 cases out of 4 cases” and the Secretion of perforin entry is recorded as “increased by 2DG treatment in 3 cases out of 4 cases”. The “Effect of 2DG treatment on N-glycans (sugar chain analysis)” value in [5] is given as “abnormal increase of the mature branched N-glycan in which deoxyhexose had been introduced”. Moreover, the Galectin-3 binding ability entry in the data set on galectin-3 is “reduced in a dose-dependent manner”. In addition, the “Cytotoxic activity against Daudi” value in [6] is recorded as “had not been increased”. Further, the “Exposure of CD107a onto the cell surface (degranulation of CD8+ T cells)” value in the data set on Daudi cells is recorded as “not promoted”. The “Exposure of CD107a onto the cell surface (degranulation of CD8+ T cells)” value with K562 cells is “promoted”.
On to `NC(=O)C(=O)O` [oxamate], for which the “Cytotoxic activity against cancer cells” value with cancer cells [7] is on record as “no enhancement of the cytotoxic activity was observed”.

These data come from patent US20210002611A1, “IMPROVED ALPHA-BETA T PROCESSED CELL PRODUCTION METHOD” (OSAKA UNIVERSITY, priority 2018, published 2021).
